Experimental data reported in paper PMC6030077, “Dual role of HDAC10 in lysosomal exocytosis and DNA repair promotes neuroblastoma chemoresistance” (Scientific Reports, 2018).
pEC50, pIC50: −log10 of the molar value.

What was measured:
[1] = target: T1, HDAC10 (Homo sapiens, UniProt Q969S8); experiment: In-cell target engagement (NanoBRET) assay, NanoLuc-HDAC10; assay type: binding
T1 construct: NanoLuc®-HDAC10 FL Fusion Vector; host or cells: HeLa cells, stably transfected
T1 sequence (Q969S8 1-669): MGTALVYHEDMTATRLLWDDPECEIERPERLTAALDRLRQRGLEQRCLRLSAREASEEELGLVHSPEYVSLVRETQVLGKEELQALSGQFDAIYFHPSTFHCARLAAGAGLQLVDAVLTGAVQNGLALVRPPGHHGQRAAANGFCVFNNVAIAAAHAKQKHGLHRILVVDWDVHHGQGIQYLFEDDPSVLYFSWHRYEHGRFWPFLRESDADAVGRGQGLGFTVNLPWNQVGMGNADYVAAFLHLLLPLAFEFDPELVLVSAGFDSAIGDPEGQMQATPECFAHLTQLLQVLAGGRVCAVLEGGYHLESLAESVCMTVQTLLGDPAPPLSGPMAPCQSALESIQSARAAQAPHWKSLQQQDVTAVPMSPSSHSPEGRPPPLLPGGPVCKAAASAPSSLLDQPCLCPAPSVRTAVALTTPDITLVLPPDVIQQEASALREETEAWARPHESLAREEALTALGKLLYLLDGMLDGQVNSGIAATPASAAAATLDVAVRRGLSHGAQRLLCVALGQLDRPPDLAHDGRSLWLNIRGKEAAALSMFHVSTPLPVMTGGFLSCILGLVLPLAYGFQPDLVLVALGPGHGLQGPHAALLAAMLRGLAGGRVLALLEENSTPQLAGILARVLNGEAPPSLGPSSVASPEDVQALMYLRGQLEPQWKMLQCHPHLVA
From the text: We next investigated if accumulation of lysosomes was also affected by inhibition of HDAC6 and HDAC10, respectively. […] Since no bona fide downstream target protein of HDAC10 has been described to date, we performed an in-cell target engagement (NanoBRET) assay that measures competitive displacement of a fluorescently-labeled tracer from NanoLuc® Luciferase coupled HDAC10 enzyme. […] To exclude that lysosomal accumulation after treatment with HDAC6/10 inhibitors was caused by off-target inhibition of class I HDACs, we treated BE(2)-C cells with 1 mM class I HDAC inhibitor valproic acid (VPA).
(§1) HeLa cells, stabily transfected with NanoBRET plasmids NanoLuc®-HDAC6 FL Fusion Vector and NanoLuc®-HDAC10 FL Fusion Vector (Promega, Madison, WI, USA) were seeded at 20.000 cells/well in white 96 well plates. Without further incubation, tracer (0.3 µM) and drugs were added in separate steps and plates were placed in a tissue culture incubator for 2 h. For NanoBRET quantification, plates were put at room temperature for 10 minutes. Nanoglow substrate, diluted in OptiMEM without phenol red, was added and measured within 10 minutes in an OPTIMA plate reader (460 nm emission for donor and 610LP filter for acceptor). The BRET signal was calculated by the ratio of acceptor signal and donor signal.

[2] = system: HDAC6; experiment: Western blot analysis of tubulin K40 acetylation as a marker for HDAC6 inhibition; assay type: cell-based, human; conditions: 24 h treatment
Experimental: Western blot analysis was performed as previously described. The following antibodies were used: anti-HDAC6 (sc-11420, Santa Cruz), anti-HDAC10 (H3413, Sigma), anti-acetylated histone H3 (06-911, Merck Millipore), anti-histone H3 (9715, Cell Signaling Technology, Cambridge UK), anti-LAMP-1 (H4A3, DHSB, Iowa City, IA, USA), anti-LAMP-2 (H4B4; Santa Cruz Biotechnology), anti-acetylated tubulin (6–11B-1; Sigma), anti-tubulin (2148, Cell Signaling Technology), anti P-glycoprotein (13978 S, Cell Signaling Technology) and anti-β-actin (clone AC-15; Sigma).

[3] = target: T2, HDAC6 (Homo sapiens, UniProt Q9UBN7); experiment: In-cell target engagement (NanoBRET) assay, NanoLuc-HDAC6; assay type: binding; conditions: HeLa cells stably transfected with NanoLuc-HDAC6, 2 h
T2 sequence (Q9UBN7 1-1215): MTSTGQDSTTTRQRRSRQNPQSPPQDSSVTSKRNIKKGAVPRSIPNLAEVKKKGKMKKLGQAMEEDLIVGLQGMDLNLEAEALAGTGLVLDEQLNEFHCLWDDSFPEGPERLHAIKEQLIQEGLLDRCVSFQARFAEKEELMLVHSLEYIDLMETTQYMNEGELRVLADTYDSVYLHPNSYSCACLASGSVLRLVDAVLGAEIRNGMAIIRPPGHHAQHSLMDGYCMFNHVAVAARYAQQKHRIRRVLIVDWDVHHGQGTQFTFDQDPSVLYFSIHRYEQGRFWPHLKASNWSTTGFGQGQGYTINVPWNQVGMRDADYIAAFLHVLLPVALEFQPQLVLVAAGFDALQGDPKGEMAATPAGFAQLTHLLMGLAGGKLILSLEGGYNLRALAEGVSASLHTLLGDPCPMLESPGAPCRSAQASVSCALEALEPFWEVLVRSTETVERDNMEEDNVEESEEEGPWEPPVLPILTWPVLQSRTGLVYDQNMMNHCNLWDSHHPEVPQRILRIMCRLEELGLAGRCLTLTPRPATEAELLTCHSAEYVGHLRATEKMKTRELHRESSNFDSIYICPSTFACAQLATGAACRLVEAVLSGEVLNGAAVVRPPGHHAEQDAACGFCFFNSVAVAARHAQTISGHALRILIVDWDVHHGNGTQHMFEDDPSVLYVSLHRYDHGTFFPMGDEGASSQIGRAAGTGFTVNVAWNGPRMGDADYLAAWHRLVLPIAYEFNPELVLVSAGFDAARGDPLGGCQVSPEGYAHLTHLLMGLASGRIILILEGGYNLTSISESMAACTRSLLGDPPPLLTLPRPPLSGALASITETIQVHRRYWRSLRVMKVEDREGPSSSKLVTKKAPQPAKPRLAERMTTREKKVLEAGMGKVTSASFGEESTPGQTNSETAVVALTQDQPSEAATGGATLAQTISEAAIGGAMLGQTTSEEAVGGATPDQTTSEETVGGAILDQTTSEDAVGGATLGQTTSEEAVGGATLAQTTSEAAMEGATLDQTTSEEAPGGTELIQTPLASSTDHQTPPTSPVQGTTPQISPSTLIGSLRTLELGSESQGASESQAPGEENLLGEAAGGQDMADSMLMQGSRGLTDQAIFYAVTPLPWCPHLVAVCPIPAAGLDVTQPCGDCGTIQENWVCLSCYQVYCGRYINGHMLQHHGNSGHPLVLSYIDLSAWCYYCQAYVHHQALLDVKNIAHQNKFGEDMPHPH
Experimental: as §1

[4] = system: BE(2)-C cells; experiment: Flow cytometric analysis of LysoTracker DND-99 staining (lysosomal accumulation); assay type: cell-based, human; conditions: 24 h treatment
Experimental: Six days after siRNA transfection or 24 h after treatment with HDAC or lysosomal inhibitors, cells were stained for 1 h with 50 nM LysoTracker® Red DND-99 in medium under standard cell culture conditions. Cells were washed with ice-cold RPMI w/o phenol-red and detached using Trypsin/EDTA for 3 minutes at 37 °C. Cells were centrifuged, resuspended in RPMI w/o phenol red and LysoTracker® Red fluorescence was quantified on a BD FACSCanto II platform using the PE filter setting.

[5] = system: BE(2)-C cells; experiment: Flow cytometric quantification of intracellular doxorubicin accumulation, BE(2)-C; assay type: cell-based, human; conditions: 100 ng/ml doxorubicin, 24 h co-treatment
Experimental: For flow cytometric quantification of intracellular doxorubicin after HDAC6/10 inhibition, BE(2)-C, SK-N-AS, IMR-32, HAP1 wild type and HDAC10 knockout cells were seeded in 6-well dishes at a density of 1.5 ∗ 10^5 cells/well (BE(2)-C and SK-N-AS, HAP1) and 3 ∗ 10^5 cells/well (IMR-32). Cells were treated with 25 ng/ml, 50 ng/ml, 100 ng/ml or 1 µg/ml doxorubicin, respectively, for 3–48 h (see respective figure legend). Where indicated, cells were co-treated with HDAC6/10 or lysosomal inhibitors. In case of co-treatment with vacuolin-1, vacuolin-1 was directly added to cells under doxorubicin treatment 1 h or 24 h prior to analysis. Flow cytometric quantification of intracellular doxorubicin after HDAC6, HDAC10 or P-glycoprotein knockdown in BE(2)-C cells was performed 5 days (P-glycoprotein) or 6 days (HDAC6/10) after transfection with siRNA. To that end, cells were seeded 3–4 days after transfection into 6-well dishes at 1.5 ∗ 10^5 cells per well and treated with 100 ng/ml doxorubicin +/− HDAC6/10 and lysosomal inhibitors for the last 24 h. After doxorubicin treatment, BE(2)-C, SK-N-AS, IMR-32 and HAP1 cells were washed with ice-cold RPMI w/o phenol-red and detached using Trypsin/EDTA for 3 minutes at 37 °C. Cells were centrifuged, resuspended in RPMI w/o phenol red and doxorubicin fluorescence was quantified on a BD FACSCanto II platform using the PE filter setting.

In the case of CN1C(=O)C2CN(Cc3c2c2ccccc2n3Cc2ccc(C(=O)NO)cc2)C1=O (stereo not shown) [Marbostat-100], the “concentrations at which HDAC10 is inhibited (NanoBRET)” value [1] was “above 150 nM”, the pIC50 ([1]; HeLa cells stably transfected with NanoLuc-HDAC10, 2 h) was 6.25 and the “concentrations inducing tubulin acetylation” value [2] was no less than 50 nM. For the same compound, the pIC50 [3] was 8.66, the “concentrations at which LysoTracker staining is increased” value [4] was “above 1 µM” and the pEC50 ([4]; read-out: LysoTracker staining EC50) was 5.18. For the same compound, the “concentrations at which intracellular doxorubicin levels are increased” value [5] was no less than 5 µM.
